Source: ChEMBL document CHEMBL3045137, “Synthesis and evaluation of the hypoglycemic and hypolipidemic activity of novel 5-benzylidene-2,4-thiazolidinedione analogs in a type-2 diabetes model” (2011)

Experiments:
Type in all cases: functional
Parameters in all cases: scale not given: the % may be the effect or the level left
Rattus norvegicus [1] = assay: Hypolipidemic activity in high fat diet fed Rattus norvegicus Sprague-Dawley (rat) type-2 diabetes model assessed as reduction in streptozotocin-induced triglyceride level at 20 mg/kg/day, po for 14 days measured after treatment
Rattus norvegicus [2] = assay: Hypolipidemic activity in high fat diet fed Rattus norvegicus Sprague-Dawley (rat) type-2 diabetes model assessed as reduction in streptozotocin-induced cholesterol level at 20 mg/kg/day, po for 14 days measured after treatment
Rattus norvegicus [3] = assay: Hypoglycemic activity in high fat diet fed Rattus norvegicus Sprague-Dawley (rat) type-2 diabetes model assessed as reduction in streptozotocin-induced blood glucose level at 20 mg/kg/day, po for 14 days measured after treatment
Rattus norvegicus [4] = assay: Hypoglycemic activity in high fat diet fed Rattus norvegicus Sprague-Dawley (rat) type-2 diabetes model assessed as reduction in streptozotocin-induced blood glucose level at 10 mg/kg/day, po for 14 days measured after treatment
Rattus norvegicus [5] = assay: Hypolipidemic activity in high fat diet fed Rattus norvegicus Sprague-Dawley (rat) type-2 diabetes model assessed as reduction in streptozotocin-induced cholesterol level at 10 mg/kg/day, po for 14 days measured after treatment
Rattus norvegicus [6] = assay: Hypolipidemic activity in high fat diet fed Rattus norvegicus Sprague-Dawley (rat) type-2 diabetes model assessed as reduction in streptozotocin-induced triglyceride level at 10 mg/kg/day, po for 14 days measured after treatment

Compound	Activity (Rattus norvegicus [1]) [%]	Activity (Rattus norvegicus [2]) [%]	Activity (Rattus norvegicus [3]) [%]	Activity (Rattus norvegicus [4]) [%]	Activity (Rattus norvegicus [5]) [%]	Activity (Rattus norvegicus [6]) [%]
O=C(COc1ccc(/C=C2\SC(=O)NC2=O)cc1)Nc1ncc([N+](=O)[O-])s1	78.11	92.46	56.08			
NC(=O)c1cc(C(=O)COc2ccc(/C=C3\SC(=O)NC3=O)cc2)ccc1O	74.18	89.7	64.43			
CCc1ccc(CCOc2ccc(CC3SC(=O)NC3=O)cc2)nc1.Cl (centres undefined) [PIOGLITAZONE HYDROCHLORIDE]				51.57	86.83	78.38
